According to patent publication US6479480B1, “Phenylindole derivatives as 5-ht2a receptor ligands” (Merck Sharp & Dohme Ltd., priority 1998, dated 2002):

System: schizophrenic patients
Conditions: multicentre, placebo-controlled study; cited from earlier work
In the case of `COc1cccc(C(O)C2CCN(CCc3ccc(F)cc3)CC2)c1OC` (stereo not drawn) [MDL-100,907, (+)-α-(2,3-dimethoxyphenyl)-1-[2-(4-fluorophenyl)-ethyl]-4-piperidinemethanol], the “efficacy for antipsychotic potential” value is given as “demonstrated efficacy” and the neurological adverse effects is given as “no neurological adverse effects”.

System: animal models
Conditions: preclinical studies; cited from earlier work
In the case of `COc1cccc(C(O)C2CCN(CCc3ccc(F)cc3)CC2)c1OC` (stereo not drawn) [MDL-100,907, (+)-α-(2,3-dimethoxyphenyl)-1-[2-(4-fluorophenyl)-ethyl]-4-piperidinemethanol], the “block of apomorphine-induced stereotyped behaviour” value is listed as “failed to block apomorphine-induced stereotyped behaviour”.

Biological target: human dopamine D2 receptor (Homo sapiens, UniProt P14416)
Sequence (P14416 whole entry): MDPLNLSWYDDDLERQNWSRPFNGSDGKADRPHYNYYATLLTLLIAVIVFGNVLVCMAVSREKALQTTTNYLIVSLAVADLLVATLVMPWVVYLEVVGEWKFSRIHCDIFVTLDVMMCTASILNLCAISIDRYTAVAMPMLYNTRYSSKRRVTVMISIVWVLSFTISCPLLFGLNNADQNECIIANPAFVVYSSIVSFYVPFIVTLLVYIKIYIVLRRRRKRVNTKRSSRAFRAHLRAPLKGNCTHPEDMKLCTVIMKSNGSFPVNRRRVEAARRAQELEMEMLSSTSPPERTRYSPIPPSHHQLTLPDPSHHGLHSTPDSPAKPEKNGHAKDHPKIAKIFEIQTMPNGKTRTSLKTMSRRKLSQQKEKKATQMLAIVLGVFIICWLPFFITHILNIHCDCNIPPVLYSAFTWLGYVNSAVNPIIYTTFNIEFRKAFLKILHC
Conditions: cited from earlier work
For `COc1cccc(C(O)C2CCN(CCc3ccc(F)cc3)CC2)c1OC` (stereo not drawn) [MDL-100,907, (+)-α-(2,3-dimethoxyphenyl)-1-[2-(4-fluorophenyl)-ethyl]-4-piperidinemethanol], the “activity at the human dopamine D2 receptor” value is given as “essentially devoid of activity”.

System: not given
Conditions: not given
`O=C(O)C(=O)O.c1ccc(CN2CCCC2Cc2c(-c3ccccc3)[nH]c3ccccc23)cc1` (centres unmarked) gave a melting point of 210 °C.
For `O=C(O)C(=O)O.c1ccc(CCN2CCCC2Cc2c(-c3ccccc3)[nH]c3ccccc23)cc1` (centres unmarked), the melting point was 182 °C.
For `O=C(O)C(=O)O.c1ccc(CN2CCC(Cc3c(-c4ccccc4)[nH]c4ccccc34)C2)cc1` (centres unmarked), the melting point was 95 °C.
`O=C(O)C(=O)O.c1ccc(CCN2CCC(Cc3c(-c4ccccc4)[nH]c4ccccc34)C2)cc1` (centres unmarked) showed a melting point of 100 °C.
For `CN1CCCC[C@H]1Cc1c(-c2ccccc2)[nH]c2ccccc12`, the melting point was 135 °C.
For `CN1CCC(Cc2c(-c3ccccc3)[nH]c3ccccc23)C1.O=C(O)C(=O)O` (centres unmarked), the melting point was 80 °C.
For `CCN1CCCCC1Cc1c(-c2ccccc2)[nH]c2ccccc12.O=C(O)C(=O)O` (centres unmarked), the melting point was 197 °C.
For `COCCN1CCCCC1Cc1c(-c2ccccc2)[nH]c2ccccc12.O=C(O)C(=O)O` (centres unmarked), the melting point was 185 °C.
Work on `O=C(O)C(=O)O.c1ccc(CN2CCCCC2Cc2c(-c3ccccc3)[nH]c3ccccc23)cc1` (centres unmarked) yielded a melting point of 235 °C.
`O=C(O)C(=O)O.c1ccc(CCN2CCCCC2Cc2c(-c3ccccc3)[nH]c3ccccc23)cc1` (centres unmarked) showed a melting point of 232 °C.
In the case of `CN1CCNC[C@@H]1Cc1c(-c2cccc(F)c2)[nH]c2cc(F)ccc12.Cl.Cl`, the melting point is reported as 200 °C.
`CN1CCC[C@@H]1Cc1c(-c2ccccc2)[nH]c2ccccc12` gave a melting point of 132 °C.
`CN1CCC[C@H]1Cc1c(-c2ccccc2)[nH]c2ccccc12` gave a melting point of 133 °C.
Compound `CN1C2CCC(CC2)C1Cc1c(-c2ccccc2)[nH]c2ccccc12.O=C(O)C(=O)O` (centres unmarked) has a melting point of 193 °C.
`CN1C2CCC(C2)C1Cc1c(-c2ccccc2)[nH]c2ccccc12.Cl` (centres unmarked) showed a melting point of 176 °C.
Compound `CN1CCN(C)[C@@H](Cc2c(-c3ccccc3)[nH]c3ccccc23)C1.Cl.Cl` has a melting point of 253 °C.
With `CN1CCN(C)[C@@H](Cc2c(-c3ccccc3)[nH]c3c(Cl)cccc23)C1.Cl.Cl` the melting point was 260 °C.
For `CN1CCCC(Cc2c(-c3ccccc3)[nH]c3ccccc23)C1.O=C(O)C(=O)O` (centres unmarked) (hydrate or solvate), the melting point was 234 °C.
For `O=C(O)C(=O)O.c1ccc(CCN2CCCC(Cc3c(-c4ccccc4)[nH]c4ccccc34)C2)cc1` (centres unmarked) (hydrate or solvate), the melting point was 128 °C.
`CN1CCCC[C@@H]1Cc1c(-c2ccccc2)[nH]c2ccccc12` (hydrate or solvate) showed a melting point of 150 °C.
`CN1CCN[C@@H](Cc2c(-c3cccc(F)c3)[nH]c3cc(F)ccc23)C1.Cl.Cl` (hydrate or solvate) showed a melting point of 228 °C.
Compound `C[C@@H]1CC[C@H](Cc2c(-c3ccccc3)[nH]c3ccccc23)N1C.O=C(O)C(=O)O` (relative stereo) has a melting point of 183 °C.
